B1: GLUT1 (Mus musculus) (protein)
chain: MDPSSKKVTGRLMLAVGGAVLGSLQFGYNTGVINAPQKVIEEFYNQTWNHRYGEPIPSTTLTTLWSLSVAIFSVGGMIGSFSVGLFVNRFGRRNSMLMMNLLAFVAAVLMGFSKLGKSFEMLILGRFIIGVYCGLTTGFVPMYVGEVSPTALRGALGTLHQLGIVVGILIAQVFGLDSIMGNADLWPLLLSVIFIPALLQCILLPFCPESPRFLLINRNEENRAKSVLKKLRGTADVTRDLQEMKEEGRQMMREKKVTILELFRSPAYRQPILIAVVLQLSQQLSGINAVFYYSTSIFEKAGVQQPVYATIGSGIVNTAFTVVSLFVVERAGRRTLHLIGLAGMAGCAVLMTIALALLERLPWMSYLSIVAIFGFVAFFEVGPGPIPWFIVAELFSQGPRPAAIAVAGFSNWTSNFIVGMCFQYVEQLCGPYVFIIFTVLLVLFFIFTYFKVPETKGRTFDEIASGFRQGGASQSDKTPEELFHPLGADSQV
notes: A band indicating the expression of GLUT-1 was confirmed in any of TM-BBB1, TM-BBB2, TM-BBB3, TM-BBB4 and TM-BBB5; endogenous in cells; host or cells: TM-BBB1 to TM-BBB5, conditionally immortalised mouse brain capillary endothelial cell lines (SV40tsA58 large T transgenic mice)

How the values were obtained:
GLUT1 = target: T1, GLUT1 (Mus musculus, UniProt P17809); test: Incorporation of 3-O-methyl-D-glucose (3-OMG) into brain capillary endothelial cell lines TM-BBB (glucose transfer ability); type: cell-based; settings: incorporation of [^3H]3-OMG into TM-BBB cell lines, uptake buffer 37°C, 20 seconds
T1 construct: A band indicating the expression of GLUT-1 was confirmed in any of TM-BBB1, TM-BBB2, TM-BBB3, TM-BBB4 and TM-BBB5; endogenous in cells; host or cells: TM-BBB1 to TM-BBB5, conditionally immortalised mouse brain capillary endothelial cell lines (SV40tsA58 large T transgenic mice)
T1 sequence (P17809 1-492): B1 chain
Procedure: (§1) Each of TM-BBB's was plated onto a 24-well cell culture plate at a density of 3×10^5 cells/well/mℓ medium and cultured in a CO2 incubator at 33°C for 24 hours to make the cells confluent. The incorporation of 3-OMG was measured in the following manner. […] Ten seconds later, the uptake buffer was removed, and the cells were washed with the uptake buffer at 4°C. Subsequently, the uptake buffer was removed after 20 seconds, 30 seconds, 1 minute, or 10 minutes, and the cells were treated in the same manner. […] Twenty seconds later, the uptake buffer was removed, and the cells were washed with the uptake buffer at 4°C. Then, the cells were lyzed overnight with 1 mℓ PBS containing 1% Triton X-100 and then measured for radioactivity in a liquid scintillation counter. […] Pharmacobio-Dyn, 4: 879-885 (1981)] using a plot formula (V = Vmax x [S]/(Km + [S]); […]

[1] = system: L-glutamic acid transporter; test: Incorporation of [^3H]L-glutamic acid into astrocyte cell lines TR-AST (glutamic acid transport ability); type: cell-based, rat; settings: for incorporation of [^3H]L-Glu, expressed in % relative to the control: 1 mM of the inhibitor, control = 100±5; for inhibition of incorporation of [^3H]L-Glu (in words): other substrates of the transporter
Procedure: The glutamic acid transport ability of the cell lines obtained in Example 4, that is, TR-AST32, TR-AST811, TR-AST912, TR-AST932, TR-AST943 was examined by incorporation of [^3H]L-glutamic acid ([^3H]L-Glu). Each TR-AST's was plated onto a 24-well cell culture plate at a density of 2×10^5 cells/well and cultured in a CO2 incubator at 33°C to make the cells confluent. The incorporation of [^3H]L-Glu was measured in the following manner. First, the medium was suctioned, and the cells were washed with an uptake buffer at 37°C, and 0.2 mℓ uptake buffer containing 46.3 kBq/well [^3H]L-Glu and 9.25 kBq/mℓ [^14C]inulin at 37°C was added, and the tracer solution was removed after 2, 5, 10 or 30 minutes, and the cells were washed 3 times with 1 mℓ uptake buffer at 4°C. To the cells, 0.75 mℓ of 1% Triton X-100 was added, and the cells were allowed to stand overnight so that they were lyzed and then the lysate was measured for radioactivity in a liquid scintillation counter.
The Km and Vmax for incorporation of […] were analyzed using a non-linear minimum square program [Yamaoka, K. et al., J. Pharmacobio-Dyn, 4, 879-885 (1981)] using a plot formula (V = Vmax × [S]/(Km + [S]); Vmax is a maximum rate constant, Km is a Michaelis constant, and [S] is a substrate concentration) for the rate of incorporation of L-Glu. […]

[2] = substrate: CO[C@@H]([C@H](O)[C@H](O)CO)[C@@H](O)C=O; test: Incorporation of 3-O-methyl-D-glucose (3-OMG) into brain capillary endothelial cell lines TM-BBB (glucose transfer ability); type: cell-based, mouse; settings: other: incorporation of [^3H]3-OMG into TM-BBB cell lines, uptake buffer 37°C, 20 seconds, 0.5-50 mM unlabelled 3-OMG, pH 7.4
Procedure: as §1

Molecule	incorporation of [^3H]L-Glu, expressed in % relative to the control [1] [%]	inhibition of incorporation of [^3H]L-Glu (in words) [1]	further results
CO[C@@H]([C@H](O)[C@H](O)CO)[C@@H](O)C=O [3-OMG, 3-O-methyl-D-glucose]			maximum incorporation rate constant (Vmax) (GLUT1): 44 nmol/min/mg protein
N[C@H](CC(=O)O)C(=O)O [D-Asp, D-aspartic acid]	67±6	significantly inhibited	
N[C@@H](CC(=O)O)C(=O)O [L-Asp, L-aspartic acid]	57±2	significantly inhibited	
N[C@@H](CCC(=O)O)C(=O)O [L-Glu, L-glutamic acid]	8.3±1.5		maximum incorporation rate constant (Vmax) ([1]; incorporation of [^3H]L-Glu into TR-AST cell lines, 37°C): 1.8 nmol/min/mg protein; Km ([1]; incorporation of [^3H]L-Glu into TR-AST cell lines, 37°C, read-out: Michaelis constant (Km)): 96 µM
B1			Km [2]: 6600 µM

— patent EP0942066A2, “Cell line of blood-brain barrier” (KYOWA HAKKO KOGYO CO., LTD., priority 1998, dated 1999)
